# PubChem BioAssay AID1259411 (Chemical Carcinogenesis Research Information System (CCRIS), 2018)
# Active and inactive are the calls of the source. No rule for the calls is given here.
# Test system: rodent carcinogenicity bioassays, tumor incidence
# Experiment: CCRIS carcinogenicity studies
# In short: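 NCI-built, expert-reviewed records of carcinogenicity and related test outcomes (mutagenicity, tumor promotion/inhibition) compiled from published and report sources, historical span 1985-2011, not updated.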
smiles,measurement,setting,value
[CH3][Hg][Cl],carcinogen call,"Species: MOUSE, Strain/Sex: B6C3F1/FEMALE, Route: ORAL, Dose: 0, 0.4, 2, 10 PPM IN DIET FOR 104 WK (STUDY DURATION: 104 WK), Dose: 0, 0.4, 2, 10 PPM IN DIET FOR 104 WK (STUDY DURATION: 104 WK)",inactive; negative
same,carcinogen call,"Species: MOUSE, Strain/Sex: B6C3F1/MALE, Route: ORAL, Dose: 0, 0.4, 2, 10 PPM IN DIET FOR 104 WK (STUDY DURATION: 104 WK), Dose: 0, 0.4, 2, 10 PPM IN DIET FOR 104 WK (STUDY DURATION: 104 WK), Tumor Site: Type of Lesion: KIDNEY: CARCINOMA, ADENOMA",active; positive
same,carcinogen call,"Species: MOUSE, Strain/Sex: ICR/FEMALE, Route: ORAL, Dose: 0, 0.4, 2, 10 PPM IN DIET FOR 104 WK (STUDY DURATION: 104 WK), Dose: 0, 0.4, 2, 10 PPM IN DIET FOR 104 WK (STUDY DURATION: 104 WK)",inactive; negative
same,carcinogen call,"Species: MOUSE, Strain/Sex: ICR/FEMALE, Route: ORAL, Dose: 0, 10 PPM IN BASAL DIET ADMINISTERED TO SPAYED MICE FOR 80 WK (STUDY DURATION: 80 WK)",inactive; negative
same,carcinogen call,"Species: MOUSE, Strain/Sex: ICR/FEMALE, Route: ORAL, Dose: 0, 10 PPM IN BASAL DIET FOR 80 WK (STUDY DURATION: 80 WK)",inactive; negative
same,carcinogen call,"Species: MOUSE, Strain/Sex: ICR/FEMALE, Route: ORAL, Dose: 0, 15 PPM IN DIET FOR 78 WK (STUDY DURATION: 78 WK)",inactive; negative
same,carcinogen call,"Species: MOUSE, Strain/Sex: ICR/MALE, Route: ORAL, Dose: 0, 0.4, 2, 10 PPM IN DIET FOR 104 WK (STUDY DURATION: 104 WK), Dose: 0, 0.4, 2, 10 PPM IN DIET FOR 104 WK (STUDY DURATION: 104 WK), Tumor Site: Type of Lesion: KIDNEY: ADENOCARCINOMA",active; positive
same,carcinogen call,"Species: MOUSE, Strain/Sex: ICR/MALE, Route: ORAL, Dose: 0, 10 PPM IN BASAL DIET ADMINISTERED TO CASTRATED MICE FOR 80 WK (STUDY DURATION: 80 WK)",inactive; negative
same,carcinogen call,"Species: MOUSE, Strain/Sex: ICR/MALE, Route: ORAL, Dose: 0, 10 PPM IN BASAL DIET FOR 80 WK (STUDY DURATION: 80 WK), Tumor Site: Type of Lesion: KIDNEY: ADENOCARCINOMA",active; positive
same,carcinogen call,"Species: MOUSE, Strain/Sex: ICR/MALE, Route: ORAL, Dose: 0, 15 PPM IN DIET FOR 78 WK (STUDY DURATION: 78 WK), Tumor Site: Type of Lesion: KIDNEY: ADENOCARCINOMA, ADENOMA",active; positive
same,carcinogen call,"Species: RAT, Strain/Sex: SPRAGUE-DAWLEY/FEMALE, Route: ORAL, Dose: 0, 0.4, 2, 10 PPM IN DIET FOR 130 WK (STUDY DURATION: 130 WK), Dose: 0, 0.4, 2, 10 PPM IN DIET FOR 130 WK (STUDY DURATION: 130 WK)",inactive; negative
same,carcinogen call,"Species: RAT, Strain/Sex: SPRAGUE-DAWLEY/MALE, Route: ORAL, Dose: 0, 0.4, 2, 10 PPM IN DIET FOR 130 WK (STUDY DURATION: 130 WK), Dose: 0, 0.4, 2, 10 PPM IN DIET FOR 130 WK (STUDY DURATION: 130 WK)",inactive; negative
CNc1ccc(N=Nc2ccccc2)cc1,carcinogen call,"Species: MOUSE, Strain/Sex: B6C3F1/FEMALE, Route: INTRAPERITONEAL, Dose: 0, 0.3 UMOL/G IN TRIOCTANOIN ONCE ON DAY 1 FOLLOWED BY 0.4 UMOL/G ONCE ON DAY 8, 15 AND 22 (STUDY DURATION: 10 MO)",inactive; negative
same,carcinogen call,"Species: MOUSE, Strain/Sex: B6C3F1/MALE, Route: INTRAPERITONEAL, Dose: 0, 0.017, 0.05, 0.15, 0.45 UMOL/G ONCE IN TRIOCTANOIN (STUDY DURATION: 10 MO), Dose: 0, 0.017, 0.05, 0.15, 0.45 UMOL/G ONCE IN TRIOCTANOIN (STUDY DURATION: 10 MO), Tumor Site: Type of Lesion: LIVER: HEPATOMA",active; positive
same,carcinogen call,"Species: MOUSE, Strain/Sex: B6C3F1/MALE, Route: INTRAPERITONEAL, Dose: 0, 0.3 UMOL/G IN TRIOCTANOIN ONCE ON DAY 1 FOLLOWED BY 0.4 UMOL/G ONCE ON DAY 8, 15 AND 22 (STUDY DURATION: 10 MO), Tumor Site: Type of Lesion: LIVER: HEPATOMA",active; positive
same,carcinogen call,"Species: MOUSE, Strain/Sex: C3H/MALE, Route: INTRAPERITONEAL, Dose: 0, 0.45 UMOL/G ONCE IN TRIOCTANOIN (STUDY DURATION: 11 MO), Tumor Site: Type of Lesion: LIVER: HEPATOMA",active; positive
same,carcinogen call,"Species: MOUSE, Strain/Sex: C57BL/MALE, Route: INTRAPERITONEAL, Dose: 0, 0.45 UMOL/G ONCE IN TRIOCTANOIN (STUDY DURATION: 11 MO), Tumor Site: Type of Lesion: LIVER: HEPATOMA",active; positive
same,carcinogen call,"Species: RAT, Strain/Sex: F344/MALE, Route: INTRAPERITONEAL, Dose: 0, 0.3 UMOL/G IN TRIOCTANOIN ONCE ON DAY 1 FOLLOWED BY 0.4 UMOL/G ONCE ON DAY 8, 15 AND 22 (STUDY DURATION: 24 MO), Tumor Site: Type of Lesion: LIVER: HEPTOCELLULAR CARCINOMA",active; positive
same,carcinogen call,"Species: RAT, Strain/Sex: SHERMAN, Route: ORAL, Dose: 0.056% IN DIET FOR 132 TO 250 D, Tumor Site: Type of Lesion: LIVER: HEPATOMA",active; positive
same,carcinogen call,"Species: RAT, Strain/Sex: SPRAGUE-DAWLEY/MALE, Route: ORAL, Dose: 0.056% IN DIET FOR 4 MO, Tumor Site: Type of Lesion: LIVER: HEPATOMA",active; positive
CS(=O)(=O)c1ccc([C@@H](O)[C@@H](CO)NC(=O)C(Cl)Cl)cc1,carcinogen call,"Species: RAT, Strain/Sex: F344/FEMALE, Route: ORAL, Dose: 0, 125, 250 PPM IN DRINKING WATER FOR 104 WK (STUDY DURATION: 108 WK), Dose: 0, 125, 250 PPM IN DRINKING WATER FOR 104 WK (STUDY DURATION: 108 WK)",inactive; negative
same,carcinogen call,"Species: RAT, Strain/Sex: F344/MALE, Route: ORAL, Dose: 0, 125, 250 PPM IN DRINKING WATER FOR 104 WK (STUDY DURATION: 108 WK), Dose: 0, 125, 250 PPM IN DRINKING WATER FOR 104 WK (STUDY DURATION: 108 WK)",inactive; negative
NC(N)=Nc1nc(CSCCN=CNS(=O)(=O)c2ccc(Br)cc2)cs1,carcinogen call,"Species: MOUSE, Strain/Sex: CD-1/FEMALE, Route: ORAL, Dose: 0, 50, 200, 500 MG/KG FOR 18 MO (STUDY DURATION: 18 MO), Dose: 0, 50, 200, 500 MG/KG FOR 18 MO (STUDY DURATION: 18 MO)",inactive; negative
same,carcinogen call,"Species: MOUSE, Strain/Sex: CD-1/MALE, Route: ORAL, Dose: 0, 50, 200, 500 MG/KG FOR 18 MO (STUDY DURATION: 18 MO), Dose: 0, 50, 200, 500 MG/KG FOR 18 MO (STUDY DURATION: 18 MO)",inactive; negative
same,carcinogen call,"Species: RAT, Strain/Sex: SPRAGUE-DAWLEY/FEMALE, Route: ORAL, Dose: 0, 50, 200, 500 MG/KG FOR 13 MO THEN 0, 50, 150, 300, 500 MG/KG FOR DURATION OF STUDY (STUDY DURATION: 24 MO), Dose: 0, 50, 200, 500 MG/KG FOR 13 MO THEN 0, 50, 150, 300, 500 MG/KG FOR DURATION OF STUDY (STUDY DURATION: 24 MO)",inactive; negative
same,carcinogen call,"Species: RAT, Strain/Sex: SPRAGUE-DAWLEY/FEMALE, Route: ORAL, Dose: INITIALLY: 0, 50, 200, 500 MG/KG BW, THEN 0, 50, 150, 300, 500 (200 MG/KG DOSE LOWERED TO 150 MG/KG AFTER 13 MONTHS AND, Dose: INITIALLY: 0, 50, 200, 500 MG/KG BW, THEN 0, 50, 150, 300, 500 (200 MG/KG DOSE LOWERED TO 150 MG/KG AFTER 13 MONTHS AND",inactive; negative
same,carcinogen call,"Species: RAT, Strain/Sex: SPRAGUE-DAWLEY/MALE, Route: ORAL, Dose: 0, 50, 200, 500 MG/KG FOR 13 MO THEN 0, 50, 150, 300, 500 MG/KG FOR DURATION OF STUDY (STUDY DURATION: 24 MO), Dose: 0, 50, 200, 500 MG/KG FOR 13 MO THEN 0, 50, 150, 300, 500 MG/KG FOR DURATION OF STUDY (STUDY DURATION: 24 MO)",inactive; negative
same,carcinogen call,"Species: RAT, Strain/Sex: SPRAGUE-DAWLEY/MALE, Route: ORAL, Dose: INITIALLY: 0, 50, 200, 500 MG/KG BW, THEN 0, 50, 150, 300, 500 (200 MG/KG DOSE LOWERED TO 150 MG/KG AFTER 13 MONTHS AND, Dose: INITIALLY: 0, 50, 200, 500 MG/KG BW, THEN 0, 50, 150, 300, 500 (200 MG/KG DOSE LOWERED TO 150 MG/KG AFTER 13 MONTHS AND",inactive; negative
Cn1cc(C(=O)O)c(=O)c2ccc(/C=C/c3ccc([N+](=O)[O-])o3)nc21,carcinogen call,"Species: MOUSE, Strain/Sex: ICR/MALE, Route: ORAL, Dose: 0, 0.012% IN DIET FOR 14 WK (STUDY DURATION: 53 WK), Tumor Site: Type of Lesion: FORESTOMACH: SQUAMOUS CELL CARCINOMA, SQUAMOUS CELL PAPILLOMA, LUNG: PAPILLARY ADENOCARCINOMA",active; positive
ClC[C@@H]1O[C@@H]1Cl,carcinogen call,"Species: MOUSE, Strain/Sex: ICR/FEMALE, Route: DERMAL, Dose: 10 MG IN 0.1 ML ACETONE 3/WK FOR LIFE, Tumor Site: Type of Lesion: INTEGUMENTARY SYSTEM (SKIN): PAPILLOMA, SQUAMOUS CELL CARCINOMA",active; positive
same,carcinogen call,"Species: MOUSE, Strain/Sex: ICR/FEMALE, Route: SUBCUTANEOUS, Dose: 500 UG IN 0.05 ML TRICAPRYLIN 1/WK FOR LIFE, Tumor Site: Type of Lesion: INJECTION SITE: FIBROSARCOMA",active; positive
